Laboratory results as given in paper PMC6323127 (Saudi Pharmaceutical Journal : SPJ, 2018).
pIC50: −log10 of the molar value. In brackets after ≈: the same amount, converted by molar mass.

What was measured:
CYP1A1/2 = settings: in vitro; ref Ayrton et al., 1987; cited from earlier work
CYP1A2 [1] = target: T1, CYP1A2 (Homo sapiens, UniProt P05177); settings: for relative potency (AEM IC50)/(other anthraquinone IC50), CYP1A2-mediated caffeine demethylation: AEM as reference chemical; for inhibitor strength toward CYP1A2 activity (in words): human liver microsomes
T1 sequence (P05177 1-516): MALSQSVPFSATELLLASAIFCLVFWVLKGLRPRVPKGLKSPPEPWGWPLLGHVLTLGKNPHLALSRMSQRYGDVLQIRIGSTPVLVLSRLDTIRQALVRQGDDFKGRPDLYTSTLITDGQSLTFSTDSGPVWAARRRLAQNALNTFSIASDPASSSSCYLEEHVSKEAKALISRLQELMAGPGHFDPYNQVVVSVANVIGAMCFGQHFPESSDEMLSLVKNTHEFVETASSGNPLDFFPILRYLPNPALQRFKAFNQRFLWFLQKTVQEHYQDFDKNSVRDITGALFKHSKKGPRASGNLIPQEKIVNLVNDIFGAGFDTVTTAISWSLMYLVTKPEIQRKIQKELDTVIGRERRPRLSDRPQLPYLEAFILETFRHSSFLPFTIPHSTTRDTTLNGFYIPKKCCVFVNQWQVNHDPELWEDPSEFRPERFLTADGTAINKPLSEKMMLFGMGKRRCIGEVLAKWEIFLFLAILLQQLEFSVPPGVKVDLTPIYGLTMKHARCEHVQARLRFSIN

CYP3A4 [2] = target: T2, CYP3A4 (Homo sapiens, UniProt P08684); settings: for relative potency (AEM IC50)/(other anthraquinone IC50), CYP3A4-mediated erythromycin demethylation: AEM as reference chemical; for inhibitor strength toward CYP3A4 activity (in words): human liver microsomes
T2 sequence (P08684 whole entry): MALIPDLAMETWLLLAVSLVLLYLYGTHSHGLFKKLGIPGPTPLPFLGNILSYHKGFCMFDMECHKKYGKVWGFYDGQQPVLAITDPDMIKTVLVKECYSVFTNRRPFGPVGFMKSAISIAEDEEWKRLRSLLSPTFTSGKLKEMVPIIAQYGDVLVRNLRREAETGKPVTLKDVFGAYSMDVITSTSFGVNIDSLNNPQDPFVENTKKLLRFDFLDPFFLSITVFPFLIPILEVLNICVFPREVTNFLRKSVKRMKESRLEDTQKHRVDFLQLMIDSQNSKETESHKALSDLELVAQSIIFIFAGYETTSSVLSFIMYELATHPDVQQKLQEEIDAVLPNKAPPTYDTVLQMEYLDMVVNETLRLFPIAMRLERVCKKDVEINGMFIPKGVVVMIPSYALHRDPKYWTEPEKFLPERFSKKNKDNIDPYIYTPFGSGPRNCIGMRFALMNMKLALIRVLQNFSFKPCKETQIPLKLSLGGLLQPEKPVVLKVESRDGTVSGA

CYP3A4 [3] = target: T2, CYP3A4; assay: biochemical
CYP1A2 [4] = target: T1, CYP1A2; assay: in vitro; settings: microsomes, pH 7.4
CYP1A2 [5] = target: T1, CYP1A2; assay: biochemical

relative potency (AEM IC50)/(other anthraquinone IC50), CYP1A2-mediated caffeine demethylation (CYP1A2 [1]) [unitless]	inhibitor strength toward CYP1A2 activity (in words) (CYP1A2 [1])	relative potency (AEM IC50)/(other anthraquinone IC50), CYP3A4-mediated erythromycin demethylation (CYP3A4 [2]) [unitless]	pIC50 (CYP3A4 [3])	IC50 (CYP1A2 [4]) [µg/mL]	pIC50 (CYP1A2 [5])	inhibitor strength toward CYP3A4 activity (in words) (CYP3A4 [2])	slope of CYP1A2 inhibition-log concentration (or dilution volume) curve (CYP1A2 [1]; Fig. 5)	SMILES	inhibitor strength toward rat liver microsomal CYP1A1/2 activity (in words) (CYP1A1/2)
0.98	potent inhibitors	< 0.04	< 3.66	0.43 (≈ 1.51 µM)	–	–	–	COc1cc(O)c2c(c1)C(=O)c1cc(C)cc(O)c1C2=O [Physcion]	–
–	moderate inhibitor	–	–	–	4.48	moderate inhibitor	–	O=C(O)c1cc(O)c2c(c1)[C@@H]([C@H]1c3cc(C(=O)O)cc(O)c3C(=O)c3c(O[C@@H]4O[C@H](CO)[C@@H](O)[C@H](O)[C@H]4O)cccc31)c1cccc(O[C@@H]3O[C@H](CO)[C@@H](O)[C@H](O)[C@H]3O)c1C2=O [Sennoside B]	–
1.00	potent inhibitors	1.00	5.08	–	5.81	moderate inhibitors	1.74	O=C1c2cccc(O)c2C(=O)c2c(O)cc(CO)cc21 [Aloe-emodin]	–
–	weak inhibitor	–	–	–	< 3.81	weak inhibitor	–	O=C(O)c1cc(O)c2c(c1)[C@H]([C@H]1c3cc(C(=O)O)cc(O)c3C(=O)c3c(O[C@@H]4O[C@H](CO)[C@@H](O)[C@H](O)[C@H]4O)cccc31)c1cccc(O[C@@H]3O[C@H](CO)[C@@H](O)[C@H](O)[C@H]3O)c1C2=O [Sennoside A]	–

Continued, molecule first:

SMILES	relative potency (AEM IC50)/(other anthraquinone IC50), CYP1A2-mediated caffeine demethylation (CYP1A2 [1]) [unitless]	inhibitor strength toward CYP1A2 activity (in words) (CYP1A2 [1])	relative potency (AEM IC50)/(other anthraquinone IC50), CYP3A4-mediated erythromycin demethylation (CYP3A4 [2]) [unitless]	pIC50 (CYP3A4 [3])	IC50 (CYP1A2 [4]) [µg/mL]	pIC50 (CYP1A2 [5])	inhibitor strength toward CYP3A4 activity (in words) (CYP3A4 [2])	slope of CYP1A2 inhibition-log concentration (or dilution volume) curve (CYP1A2 [1]; Fig. 5)	inhibitor strength toward rat liver microsomal CYP1A1/2 activity (in words) (CYP1A1/2)
O=C1c2ccc(O)cc2C(=O)c2ccc(O)cc21 [2,6-dihydroxyanthraquinone]	–	–	–	–	–	–	–	–	potent inhibitor
Cc1cc(O)c2c(c1)C(=O)c1cccc(O)c1C2=O [Chrysophanol]	–	potent inhibitors	–	–	–	5.76	–	–	–
O=C(O)c1cc(O)c2c(c1)C(=O)c1cccc(O)c1C2=O [Rhein]	0.68	potent inhibitors	0.08	4.01	–	5.66	weak inhibitors	–	–
Cc1cc(O)c2c(c1)C(=O)c1cc(O)cc(O)c1C2=O [Emodin]	0.02	weak CYP1A2 inhibitor	0.55	4.82	–	4.17	moderate inhibitors	–	–
